Assays:
[1] = test system: Wheat (Triticum aestivum) seeds of the variety Arina; assay: Wheat assay: plant (root and shoot) area and curliness of the roots; assay type: in vivo; conditions: seeds in pouches with 10 mL compound solution; scanned twelve days after sowing/application
Method: Two bioassays were developed in order to assay the activity of the compounds of the present invention. In the first assay, the activity of the compound was quantified in beans based on its effect on the elongation of the petiole of the second leaf. In the second assay, the compound's effect on the root growth of wheat was determined. The test compounds were dissolved in small volumes of dimethyl sulfoxide and diluted to the appropriate concentration with water. Wheat (Triticum aestivum) seeds of the variety Arina were sown in pouches (14.7×13.2 cm) containing 10 mL of the appropriate compound solution. The pouches were stored at 17° C. for three days to enable the seeds to germinate. Plants were then stored at 5° C. Twelve days after sowing/application, plants were removed from the pouches and scanned. The effect of the compounds was quantified by determining plant (root and shoot) area and curliness of the roots (curliness is an indicator of brassinosteroid-type activity).

[2] = biological target: T1, Arabidopsis BIN2 kinase (Uniprot Q39011), His6-BIN2 (Arabidopsis thaliana, UniProt Q39011); assay: In vitro assay for inhibition of plant GSK3/shaggy-like kinase activity (ADP-Glo); assay type: biochemical; conditions: compounds at 5 μM; 5 μM ATP; myelin basic protein substrate; 1 h at 20° C.; triplicate; read-out: inhibition of the activity of His6-BIN2 relative to the solvent vehicle control
T1 construct: made in house; host or cells: E. coli BL21
T1 sequence (Q39011 1-380): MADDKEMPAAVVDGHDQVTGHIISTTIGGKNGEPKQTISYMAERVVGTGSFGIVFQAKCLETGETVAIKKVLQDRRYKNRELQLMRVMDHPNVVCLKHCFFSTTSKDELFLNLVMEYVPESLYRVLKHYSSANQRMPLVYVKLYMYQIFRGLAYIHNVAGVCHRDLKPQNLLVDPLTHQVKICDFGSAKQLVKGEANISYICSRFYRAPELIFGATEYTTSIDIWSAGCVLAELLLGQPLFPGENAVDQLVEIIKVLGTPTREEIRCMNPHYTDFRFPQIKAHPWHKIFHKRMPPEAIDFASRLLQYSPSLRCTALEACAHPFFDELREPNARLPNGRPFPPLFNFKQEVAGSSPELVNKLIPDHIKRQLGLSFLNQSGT
Method: Arabidopsis BIN2 kinase (Uniprot Q39011) was produced in E. coli BL21 as an N-terminal hexahistidine fusion protein. In vitro kinase assays were performed by incubating 50 ng His6-BIN2 protein with 5 μg myelin basic protein (Sigma-Aldrich) as substrate and 5 μM ATP as co-substrate in reaction buffer consisting of 40 mM Tris-HCl, 20 mM MgCl2 and 0.1 mg/mL bovine serum albumin in a final reaction volume of 50 μl. Enzyme activity was assessed in the absence and presence of compounds (described in Tables A and B) at 5 μM by measuring the level of ADP produced after incubation for 1 h at 20° C. using an enzyme-coupled bioluminescent assay (ADP-Glo, Promega Corp.). The experiment was performed in triplicate and principaly on the acid form (as it the active A1).

Row | Structure (SMILES) | curliness of the roots (indicator of brassinosteroid-type activity) [1] | melting point | inhibition at 5 µM [2]
1 | COC(=O)CCC(=O)Nc1ncc(C#N)s1 [A1, Methyl 4-[(5-cyanothiazol-2-yl)amino]-4-oxo-butanoate] | curly root phenotype | 118 to 119 °C | 
2 | N#Cc1cnc(NC(=O)CCC(=O)O)s1 [A5, 4-[(5-cyanothiazol-2-yl)amino]-4-oxo-butanoic acid] | curly root phenotype |  | ≥ 20%

Source: patent US10399950B2, “Substituted amino azoles as plant growth regulators” (SYNGENTA PARTICIPATIONS AG, priority 2013, dated 2019)
